These results are taken from ChEMBL document CHEMBL1201862, “PubChem BioAssay data set” (2004).

Among the test systems are NCI-H460; SN12C; CAKI-1; SK-MEL-28; K562; TK-10; NCI-H522; COLO 205; HL-60; RXF 393; MOLT-4; LOX IMVI; M14; PC-3; SF-539; U-251; SNB-75; HOP-62; Malme-3M; UO-31.
Holding throughout (assay): NCI-60 cell line screen, 48 h

SMILES strings stand for the structures.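 Method: 48-hour compound exposure of cells in 96-well plates, five concentrations, linear interpolation of endpoints. Here, GI50 denotes the concentration required for 50% inhibition of growth.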 The source made the active and inactive calls. Cut-off read from the data, not from the text of the source: active = GI50 up to about 1.1 µM and inactive = higher.

Regarding `CCn1c2ccccc2c2nnc(NCCCO)nc21`, the GI50 in the assay on NCI-H460, in the assay on SN12C, in the assay with CAKI-1, in the assay with SK-MEL-28, in the assay on K562 and with TK-10 was > 100 µM (inactive) in each case. The GI50 was > 100 µM (inactive) with NCI-H522; > 100 µM (inactive) in the assay with COLO 205; > 100 µM (inactive) in the assay with HL-60; 57.9 µM (inactive) in the assay with RXF 393; 58.2 µM (inactive) in the assay with MOLT-4; > 100 µM (inactive) in the assay on LOX IMVI. The GI50 was > 100 µM (inactive) in the assay with M14; > 100 µM (inactive) with PC-3; > 100 µM (inactive) in the assay with SF-539; > 100 µM (inactive) with U-251; 44.1 µM (inactive) in the assay with SNB-75; > 100 µM (inactive) in the assay with HOP-62. Besides, the GI50 with Malme-3M is > 100 µM (inactive).

On to `CSCCC(NC(=O)C(Cc1c[nH]c2ccccc12)NC(=O)CCNC(=O)OC(C)(C)C)C(=O)NC(CC(=O)O)C(=O)NC(Cc1ccccc1)C(N)=O` (configuration not stated), for which the GI50 with SN12C, in the assay on CAKI-1, in the assay with SK-MEL-28, in the assay on K562, in the assay with TK-10 and in the assay with NCI-H522 was > 50 µM (inactive) throughout. The GI50 with COLO 205, in the assay on HL-60, with RXF 393, with MOLT-4, in the assay on LOX IMVI and in the assay on M14 was > 50 µM (inactive) each time. Further, the GI50 with PC-3, with SF-539, with U-251, in the assay with SNB-75 and in the assay with HOP-62 was > 50 µM (inactive) throughout.

As to `CC(=O)OCCOCn1c2c(c(=S)[nH]c1=O)CCC2`, the GI50 in the assay on SN12C, in the assay with CAKI-1, with SK-MEL-28, in the assay with K562, with TK-10 and in the assay with UO-31 was > 100 µM (inactive) in each case. Also, the GI50 in the assay on NCI-H522, in the assay on COLO 205, in the assay on HL-60, in the assay on RXF 393, in the assay on MOLT-4 and in the assay with LOX IMVI was > 100 µM (inactive) in each case. For the same compound, the GI50 in the assay with M14, in the assay with PC-3, in the assay on SF-539, with U-251, with SNB-75 and in the assay on HOP-62 was > 100 µM (inactive) in each case. In addition, in the assay on Malme-3M, the GI50 was > 100 µM (inactive).

Take `O=C1C(Sc2ccc3ccccc3c2)=C(Sc2ccc3ccccc3c2)C(=O)c2ccccc21`: the GI50 was 7.82 µM (inactive) with NCI-H460; 12.1 µM (inactive) in the assay on SN12C; 15.2 µM (inactive) in the assay on SK-MEL-28; 3.47 µM (inactive) with K562; 3.95 µM (inactive) in the assay with UO-31; 1.97 µM (inactive) in the assay with NCI-H522. Further, the GI50 in the assay on COLO 205 was 3.95 µM (inactive); in the assay with HL-60, 1.1 µM (active); with RXF 393 it was 14.8 µM (inactive); in the assay on MOLT-4, 2.32 µM (inactive); in the assay on LOX IMVI it was 11.4 µM (inactive); in the assay with M14, 11.5 µM (inactive). The GI50 was 14.4 µM (inactive) in the assay on PC-3; 10.2 µM (inactive) with SF-539; 6.21 µM (inactive) in the assay with U-251; 14 µM (inactive) in the assay with SNB-75; 13.1 µM (inactive) in the assay with HOP-62.

On to `O=S1(=O)OCCOS(=O)(=O)C1F`, for which the GI50 with SN12C, in the assay with CAKI-1, in the assay on SK-MEL-28, in the assay on K562, with TK-10 and with UO-31 was > 100 µM (inactive) each time. Also, the GI50 in the assay on NCI-H522, with COLO 205, in the assay with HL-60, in the assay on RXF 393, with MOLT-4 and with LOX IMVI was > 100 µM (inactive) throughout. Also, the GI50 is > 100 µM (inactive) in the assay on M14; > 100 µM (inactive) in the assay with PC-3; 43.6 µM (inactive) with SF-539; > 100 µM (inactive) in the assay with U-251; > 100 µM (inactive) in the assay with SNB-75; > 100 µM (inactive) in the assay with HOP-62. The GI50 in the assay on Malme-3M was > 100 µM (inactive).

For the compound `Cc1ccc([N+](=O)[O-])cc1S(=O)(=O)Nc1ccc(C2=NN(S(=O)(=O)c3cc([N+](=O)[O-])ccc3C)C(c3ccccc3)C2)cc1` (configuration not stated), the GI50 in the assay on NCI-H460 is 21.6 µM (inactive); with SN12C, 28.2 µM (inactive); in the assay with CAKI-1 it was 35.8 µM (inactive); in the assay with SK-MEL-28, 82.8 µM (inactive); with K562, 30.1 µM (inactive); in the assay on TK-10 it was 30.9 µM (inactive). In addition, the GI50 in the assay with UO-31 is 28.6 µM (inactive); in the assay on NCI-H522, 15.7 µM (inactive); in the assay on COLO 205 it was 27 µM (inactive); in the assay on HL-60 it was 35.6 µM (inactive); in the assay with RXF 393 it was 36.6 µM (inactive); in the assay with MOLT-4, 30 µM (inactive). Moreover, the GI50 was 34.3 µM (inactive) in the assay on LOX IMVI; 30.9 µM (inactive) with M14; 26.9 µM (inactive) with PC-3; 29.8 µM (inactive) in the assay with U-251; 64.6 µM (inactive) with SNB-75; 35.1 µM (inactive) in the assay on HOP-62. Moreover, the GI50 in the assay with Malme-3M was 17.7 µM (inactive).

For the compound `Nc1nc(N)c2c3c(cnc2n1)CC(c1ccccc1)CC3` (configuration not stated), the GI50 in the assay on NCI-H460 was 3.66 µM (inactive); in the assay with SN12C, 17.3 µM (inactive); with CAKI-1 it was 28.1 µM (inactive); in the assay with SK-MEL-28, 35.6 µM (inactive); with K562, 0.875 µM (active); in the assay with TK-10, 21.7 µM (inactive). Besides, the GI50 with NCI-H522 is 14.4 µM (inactive); in the assay on COLO 205, 35 µM (inactive); in the assay with HL-60, 6.43 µM (inactive); in the assay with RXF 393, 17.7 µM (inactive); in the assay on MOLT-4 it was 50.5 µM (inactive); with LOX IMVI, 1.71 µM (inactive). Moreover, the GI50 in the assay on M14 was 3.24 µM (inactive); with PC-3, 21.9 µM (inactive); in the assay on SF-539, 14.3 µM (inactive); with U-251, 10.7 µM (inactive); in the assay with SNB-75, 16.4 µM (inactive); with HOP-62, 21.6 µM (inactive). The GI50 in the assay on Malme-3M is 31.5 µM (inactive).

For the compound `CC1=NN(c2cccc(Cl)c2)C2(C1=C/C=C/c1ccccc1)C(Cl)C(=O)N2c1nc2ccccc2s1` (configuration not stated), the GI50 with NCI-H460 was 5.42 µM (inactive); with SN12C, 34.6 µM (inactive); with CAKI-1 it was 9.4 µM (inactive); in the assay with SK-MEL-28, 26.2 µM (inactive); with K562 it was 6.14 µM (inactive); in the assay with TK-10, 53 µM (inactive). The GI50 is 21.4 µM (inactive) with UO-31; 14.8 µM (inactive) in the assay with NCI-H522; 62.7 µM (inactive) with COLO 205; 3.08 µM (inactive) with HL-60; 23.1 µM (inactive) with RXF 393; 1.53 µM (inactive) in the assay on MOLT-4. For the same compound, the GI50 was 13.1 µM (inactive) with LOX IMVI; 23 µM (inactive) with M14; 19.3 µM (inactive) in the assay on PC-3; 19.2 µM (inactive) in the assay on SF-539; 6.92 µM (inactive) with U-251; 27.9 µM (inactive) with HOP-62. Further, the GI50 in the assay on Malme-3M was 39 µM (inactive).

`CSc1ccc(/C=C2\CNC/C(=C\c3ccc(SC)cc3)C2=O)cc1`: the GI50 was > 119 µM (inactive) in the assay on NCI-H460; > 139 µM (inactive) in the assay on SN12C; > 209 µM (inactive) in the assay on SK-MEL-28; > 371 µM (inactive) in the assay with K562; 41.9 µM (inactive) with TK-10; > 252 µM (inactive) with UO-31. The GI50 was 56.4 µM (inactive) with NCI-H522; > 371 µM (inactive) in the assay with COLO 205; > 74.3 µM (inactive) in the assay with HL-60; 25.9 µM (inactive) in the assay on RXF 393; > 206 µM (inactive) with M14; > 100 µM (inactive) in the assay with PC-3. The GI50 was 18.4 µM (inactive) with SF-539; 16.9 µM (inactive) in the assay with U-251; 15 µM (inactive) in the assay with SNB-75; 84.5 µM (inactive) in the assay with HOP-62; > 199 µM (inactive) with Malme-3M.

As to `N#CCCN(C(=O)Nc1ccc(NC(=O)N(CCC#N)c2ccccc2)cc1)c1ccccc1`, the GI50 in the assay with NCI-H460, with SN12C, in the assay on CAKI-1, in the assay with SK-MEL-28, in the assay with K562 and with UO-31 was > 100 µM (inactive) in each case. Also, the GI50 in the assay with NCI-H522 was > 100 µM (inactive); with COLO 205, > 100 µM (inactive); with HL-60, > 100 µM (inactive); with RXF 393, 92.7 µM (inactive); in the assay with MOLT-4 it was > 100 µM (inactive); with LOX IMVI it was > 100 µM (inactive). For the same compound, the GI50 with M14, in the assay on PC-3, with U-251, with SNB-75, in the assay on HOP-62 and in the assay on Malme-3M was > 100 µM (inactive) throughout.

Turning to `Cc1nc2c(sc(=S)n2-c2ccccc2)c2nc3ncccc3n12`, the GI50 in the assay on NCI-H460 was > 100 µM (inactive); in the assay on SN12C, 46.2 µM (inactive); in the assay with CAKI-1 it was > 100 µM (inactive); with SK-MEL-28 it was > 100 µM (inactive); in the assay with K562, > 100 µM (inactive); with TK-10, 33.7 µM (inactive). Also, the GI50 in the assay with UO-31 is > 100 µM (inactive); in the assay on NCI-H522, > 100 µM (inactive); in the assay with COLO 205, > 100 µM (inactive); in the assay with HL-60 it was > 100 µM (inactive); in the assay with RXF 393, 34.8 µM (inactive); in the assay with MOLT-4 it was > 100 µM (inactive). Besides, the GI50 in the assay on LOX IMVI is > 100 µM (inactive); with M14, > 100 µM (inactive); in the assay on PC-3 it was > 100 µM (inactive); in the assay with U-251 it was 32.6 µM (inactive); with SNB-75 it was 23.6 µM (inactive); in the assay with HOP-62, 25 µM (inactive). For the same compound, the GI50 with Malme-3M was > 100 µM (inactive).
